Converted amounts (≈) assume the structure as drawn. The source made the active and inactive calls. The rule behind the calls is not given here.
Columns and labels:
[1] = tested on: Escherichia coli; test: Antibacterial activity against Escherichia coli MTCC 443 assessed as diameter of zone of inhibition at 500 ug/ml by agar disk diffusion method; type: functional; conditions: read-out: DIZ
[2] = tested on: Enterococcus faecalis; test: Antibacterial activity against Enterococcus faecalis MTCC 439 assessed as diameter of zone of inhibition at 500 ug/ml by agar disk diffusion method; type: functional; conditions: read-out: DIZ
[3] = tested on: Bacillus subtilis; test: Antibacterial activity against Bacillus subtilis MTCC 736 assessed as diameter of zone of inhibition at 500 ug/ml by agar disk diffusion method; type: functional; conditions: read-out: DIZ
[4] = tested on: Staphylococcus aureus; test: Antibacterial activity against Staphylococcus aureus MTCC 902 assessed as diameter of zone of inhibition at 500 ug/ml by agar disk diffusion method; type: functional; conditions: read-out: DIZ
[5] = tested on: Pseudomonas aeruginosa; test: Antibacterial activity against Pseudomonas aeruginosa MTCC 2453 assessed as diameter of zone of inhibition at 500 ug/ml by agar disk diffusion method; type: functional; conditions: read-out: DIZ
[6] = tested on: Salmonella typhi; test: Antibacterial activity against Salmonella typhi assessed as diameter of zone of inhibition at 500 ug/ml by agar disk diffusion method; type: functional, Salmonella enterica subsp. enterica serovar Typhi; conditions: Salmonella enterica, read-out: DIZ
[7] = tested on: Escherichia coli; test: Antibacterial activity against Escherichia coli MTCC 443 assessed as inhibition of bacterial growth incubated overnight by serial dilution based spectrophotometer; type: functional
[8] = tested on: Enterococcus faecalis; test: Antibacterial activity against Enterococcus faecalis MTCC 439 assessed as inhibition of bacterial growth incubated overnight by serial dilution based spectrophotometer; type: functional
[9] = tested on: Bacillus subtilis; test: Antibacterial activity against Bacillus subtilis MTCC 736 assessed as inhibition of bacterial growth incubated overnight by serial dilution based spectrophotometer; type: functional
[10] = tested on: Salmonella typhi; test: Antibacterial activity against Salmonella typhi assessed as inhibition of bacterial growth incubated overnight by serial dilution based spectrophotometer; type: functional, Salmonella enterica subsp. enterica serovar Typhi; conditions: Salmonella enterica
[11] = tested on: Escherichia coli; test: Bactericidal activity against Escherichia coli MTCC 443 assessed as inhibition of bacterial growth incubated overnight; type: functional
[12] = tested on: Enterococcus faecalis; test: Bactericidal activity against Enterococcus faecalis MTCC 439 assessed as inhibition of bacterial growth incubated overnight; type: functional
[13] = tested on: Bacillus subtilis; test: Bactericidal activity against Bacillus subtilis MTCC 736 assessed as inhibition of bacterial growth incubated overnight; type: functional
[14] = tested on: Staphylococcus aureus; test: Bactericidal activity against Staphylococcus aureus MTCC 902 assessed as inhibition of bacterial growth incubated overnight; type: functional
[15] = tested on: Pseudomonas aeruginosa; test: Bactericidal activity against Pseudomonas aeruginosa MTCC 2453 assessed as inhibition of bacterial growth incubated overnight; type: functional
[16] = tested on: Salmonella typhi; test: Bactericidal activity against Salmonella typhi assessed as inhibition of bacterial growth incubated overnight; type: functional, Salmonella enterica subsp. enterica serovar Typhi; conditions: Salmonella enterica
[17] = tested on: Escherichia coli; test: Ratio of MBC for antibacterial activity against Escherichia coli MTCC 443 to MIC for bactericidal activity against Escherichia coli MTCC 443; type: functional
[18] = tested on: Enterococcus faecalis; test: Ratio of MBC for antibacterial activity against Enterococcus faecalis MTCC 439 to MIC for bactericidal activity against Enterococcus faecalis MTCC 439; type: functional
[19] = tested on: Bacillus subtilis; test: Ratio of MBC for antibacterial activity against Bacillus subtilis MTCC 736 to MIC for bactericidal activity against Bacillus subtilis MTCC 736; type: functional
[20] = tested on: Staphylococcus aureus; test: Ratio of MBC for antibacterial activity against Staphylococcus aureus MTCC 902 to MIC for bactericidal activity against Staphylococcus aureus MTCC 902; type: functional
[21] = tested on: Pseudomonas aeruginosa; test: Ratio of MBC for antibacterial activity against Pseudomonas aeruginosa MTCC 2453 to MIC for bactericidal activity against Pseudomonas aeruginosa MTCC 2453; type: functional
[22] = tested on: Escherichia coli; test: Antibacterial activity against Escherichia coli MTCC 443 assessed as diameter of zone of inhibition at 0.5 times MIC incubated overnight by disk diffusion method; type: functional
[23] = tested on: Escherichia coli; test: Antibacterial activity against Escherichia coli MTCC 443 assessed as diameter of zone of inhibition at MIC incubated overnight by disk diffusion method; type: functional
[24] = tested on: Enterococcus faecalis; test: Antibacterial activity against Enterococcus faecalis MTCC 439 assessed as diameter of zone of inhibition at MIC incubated overnight by disk diffusion method; type: functional
[25] = tested on: Bacillus subtilis; test: Antibacterial activity against Bacillus subtilis MTCC 736 assessed as diameter of zone of inhibition at MIC incubated overnight by disk diffusion method; type: functional
[26] = tested on: Staphylococcus aureus; test: Antibacterial activity against Staphylococcus aureus MTCC 902 assessed as diameter of zone of inhibition at MIC incubated overnight by disk diffusion method; type: functional
[27] = tested on: Pseudomonas aeruginosa; test: Antibacterial activity against Pseudomonas aeruginosa MTCC 2453 assessed as diameter of zone of inhibition at MIC incubated overnight by disk diffusion method; type: functional
[28] = tested on: Salmonella typhi; test: Antibacterial activity against Salmonella typhi assessed as diameter of zone of inhibition at MIC incubated overnight by disk diffusion method; type: functional, Salmonella enterica subsp. enterica serovar Typhi
[29] = tested on: Escherichia coli; test: Antibacterial activity against Escherichia coli MTCC 443 assessed as diameter of zone of inhibition at 2 times MIC incubated overnight by disk diffusion method; type: functional
[30] = tested on: Enterococcus faecalis; test: Antibacterial activity against Enterococcus faecalis MTCC 439 assessed as diameter of zone of inhibition at 2 times MIC incubated overnight by disk diffusion method; type: functional
[31] = tested on: Staphylococcus aureus; test: Antibacterial activity against Staphylococcus aureus MTCC 902 assessed as diameter of zone of inhibition at 2 times MIC incubated overnight by disk diffusion method; type: functional
[32] = tested on: Pseudomonas aeruginosa; test: Antibacterial activity against Pseudomonas aeruginosa MTCC 2453 assessed as diameter of zone of inhibition at 2 times MIC incubated overnight by disk diffusion method; type: functional
[33] = tested on: Escherichia coli; test: Synergistic antibacterial activity against Escherichia coli MTCC 443 assessed as inhibition of bacterial growth incubated overnight in presence of ciprofloxacin by serial dilution based spectrophotometer; type: functional
[34] = tested on: Enterococcus faecalis; test: Synergistic antibacterial activity against Enterococcus faecalis MTCC 439 assessed as inhibition of bacterial growth incubated overnight in presence of ciprofloxacin by serial dilution based spectrophotometer; type: functional
[35] = tested on: Bacillus subtilis; test: Synergistic antibacterial activity against Bacillus subtilis MTCC 736 assessed as inhibition of bacterial growth incubated overnight in presence of ciprofloxacin by serial dilution based spectrophotometer; type: functional
[36] = tested on: Staphylococcus aureus; test: Synergistic antibacterial activity against Staphylococcus aureus MTCC 902 assessed as inhibition of bacterial growth incubated overnight in presence of ciprofloxacin by serial dilution based spectrophotometer; type: functional
[37] = tested on: Pseudomonas aeruginosa; test: Synergistic antibacterial activity against Pseudomonas aeruginosa MTCC 2453 assessed as inhibition of bacterial growth incubated overnight in presence of ciprofloxacin by serial dilution based spectrophotometer; type: functional
[38] = tested on: Salmonella typhi; test: Synergistic antibacterial activity against Salmonella typhi assessed as inhibition of bacterial growth incubated overnight in presence of ciprofloxacin by serial dilution based spectrophotometer; type: functional, Salmonella enterica subsp. enterica serovar Typhi; conditions: Salmonella enterica
[39] = tested on: Escherichia coli; test: Synergistic antibacterial activity against Escherichia coli MTCC 443 assessed as fractional inhibitory concentration index incubated overnight in presence of ciprofloxacin by microdilution checkerboard assay; type: functional
[40] = tested on: Enterococcus faecalis; test: Synergistic antibacterial activity against Enterococcus faecalis MTCC 439 assessed as fractional inhibitory concentration index incubated overnight in presence of ciprofloxacin by microdilution checkerboard assay; type: functional
[41] = tested on: Salmonella typhi; test: Synergistic antibacterial activity against Salmonella typhi assessed as fractional inhibitory concentration index incubated overnight in presence of ciprofloxacin by microdilution checkerboard assay; type: functional, Salmonella enterica subsp. enterica serovar Typhi
[42] = tested on: Escherichia coli; test: Bacteriostatic activity against Escherichia coli MTCC 443 assessed as reduction in bacterial growth at 2 times MIC measured upto 24 hrs by absorbance based assay; type: functional, organism-based
[43] = tested on: Staphylococcus aureus; test: Bacteriostatic activity against Staphylococcus aureus MTCC 902 assessed as reduction in bacterial growth at 2 times MIC measured upto 24 hrs by absorbance based assay; type: functional, organism-based

How did the zone of inhibition at 500 µg/mL [1] turn out when `Clc1ccc2c(NCC/N=C/c3ccc4ccccc4n3)ccnc2c1` was run?
The zone of inhibition at 500 µg/mL was 11 mm.

What about the zone of inhibition at 500 µg/mL [2] of the same compound?
The zone of inhibition at 500 µg/mL was 10 mm.

What about the zone of inhibition at 500 µg/mL [3] of the same compound?
Its zone of inhibition at 500 µg/mL is 10 mm.

What about the zone of inhibition at 500 µg/mL [4] of the same compound?
Its zone of inhibition at 500 µg/mL is 8 mm.

What about the zone of inhibition at 500 µg/mL [5] of the same compound?
The zone of inhibition at 500 µg/mL was 10 mm.

What about the zone of inhibition at 500 µg/mL [6] of the same compound?
The zone of inhibition at 500 µg/mL was 11 mm.

What about the MIC [7] of the same compound?
The MIC was 128 µg/mL (≈ 355 µM).

And the MIC [8]?
Its MIC is 256 µg/mL (≈ 709 µM).

What about the MIC [9] of the same compound?
The MIC was 128 µg/mL (≈ 355 µM).

What about the MIC [10] of the same compound?
The MIC was 128 µg/mL (≈ 355 µM).

And the MBC [11]?
The MBC was 128 µg/mL (≈ 355 µM).

And the MBC [12]?
Its MBC is 512 µg/mL (≈ 1420 µM).

What about the MBC [13] of the same compound?
The MBC was 512 µg/mL (≈ 1420 µM).

What about the MBC [14] of the same compound?
The MBC was 512 µg/mL (≈ 1420 µM).

What about the MBC [15] of the same compound?
Its MBC is 512 µg/mL (≈ 1420 µM).

What about the MBC [16] of the same compound?
Its MBC is 128 µg/mL (≈ 355 µM).

What about the Ratio [17] of the same compound?
Its Ratio is 1.

And the Ratio [18]?
The Ratio was 2.

What about the Ratio [19] of the same compound?
Its Ratio is 4.

And the Ratio [20]?
The Ratio was 1.

What about the Ratio [21] of the same compound?
Its Ratio is 2.

What about the “diameter of the inhibition zone (DIZ)” value [22] of the same compound?
The value was 11 mm.

And the “diameter of the inhibition zone (DIZ)” value [23]?
The value was 11 mm.

What about the “diameter of the inhibition zone (DIZ)” value [24] of the same compound?
Its value is 7 mm.

What about the “diameter of the inhibition zone (DIZ)” value [25] of the same compound?
Its value is 6 mm.

What about the “diameter of the inhibition zone (DIZ)” value [26] of the same compound?
Its value is 8 mm.

What about the “diameter of the inhibition zone (DIZ)” value [27] of the same compound?
The value was 6 mm.

And the “diameter of the inhibition zone (DIZ)” value [28]?
Its value is 10 mm.

What about the “diameter of the inhibition zone (DIZ)” value [29] of the same compound?
The value was 12 mm.

What about the “diameter of the inhibition zone (DIZ)” value [30] of the same compound?
The value was 7 mm.

What about the “diameter of the inhibition zone (DIZ)” value [31] of the same compound?
Its value is 10 mm.

What about the “diameter of the inhibition zone (DIZ)” value [32] of the same compound?
Its value is 8 mm.

What about the MIC [33] of the same compound?
Its MIC is 4 µg/mL.

And the MIC [34]?
The MIC was 16 µg/mL.

What about the MIC [35] of the same compound?
The MIC was 32 µg/mL.

And the MIC [36]?
The MIC was 256 µg/mL.

And the MIC [37]?
Its MIC is 64 µg/mL.

And the MIC [38]?
Its MIC is 4 µg/mL.

And the “fractional inhibitory concentration index (FICI)” value [39]?
The value was 0.281.

And the “fractional inhibitory concentration index (FICI)” value [40]?
Its value is 0.312.

And the “fractional inhibitory concentration index (FICI)” value [41]?
Its value is 0.093.

What about the Activity [42] of the same compound?
The Activity was “Active”.

What about the Activity [43] of the same compound?
Its Activity is “Active”.

— ChEMBL document CHEMBL6078713, “Synthesis and mechanistic studies of 4-aminoquinoline-Isatin molecular hybrids and Schiff's bases as promising antimicrobial agents” (Eur J Med Chem, 2025)
